The results in this text go back to patent publication US7772271B2 (priority 2004, dated 2010).

Each structure is given as a SMILES string.

As usually defined, the melting point is the temperature, or range, at which the solid turns liquid. The compound `CCOc1ccc2c(C#N)c(-c3ccc(NC(=O)NCc4ccco4)cc3)n(C3CCC3)c2c1` [Compound 1396] came in with a melting point of 192 to 198 °C.
In turn, `CCn1c(-c2ccc(NC(=O)NCCc3ccccc3)cc2)c(C#N)c2ccc(OCCOC)cc21` [Compound 1403] displayed a melting point of 168 to 171 °C.
As for `N#Cc1c(-c2cnc(NC3CC3)nc2)n(C2CCC2)c2cc(Oc3ncccn3)ccc12` [Compound 3328], the melting point is 227 to 229 °C.
In turn, `CC[C@H](C)NS(=O)(=O)Nc1ccc(-c2c(C#N)c3ccc(OC4CCOCC4)cc3n2C2CCC2)cc1` [Compound 2835] had a melting point of 196 to 198 °C.
Then `CC(OC(=O)Nc1ccc(-c2c(C#N)c3ccc(OC4CCOC4)cc3n2C2CC2)cc1)C(C)(C)C` (centres unmarked) [Compound 1447], with 220 to 222 °C.
Regarding `C[C@@H](OC(=O)Nc1ccc(-c2c(C#N)c3ccc(-c4cccc(Cl)n4)cc3n2C2CCC2)cc1)C1CC1` [Compound 3000], the melting point was 208 to 210 °C.
`C[C@@H](OC(=O)Nc1ccc(-c2c(C#N)c3ccc(C(=O)N4CCOCC4)cc3n2C2CCC2)cc1)C1CC1` [Compound 3107] displayed a melting point of 156 to 158 °C.
Take `CCCS(=O)(=O)Nc1ccc(-c2c(C#N)c3ccc(Oc4nccnc4C#N)cc3n2C2CCC2)c(C)c1` [Compound 3274]: the melting point fell in the range of 222 to 225 °C.
Compound `CC(OC(=O)Nc1ccc(-c2c(C#N)c3ccc(OCCCCn4cncn4)cc3n2C2CCC2)cc1)c1ccc(F)cc1` (centres unmarked) [Compound 2644] yielded a melting point of 108 to 110 °C.
The compound `CC(C)OC(=O)Nc1ccc(-c2c(C#N)c3ccc(N4CCCC4)cc3n2C2CCC2)cc1` [Compound 2954] displayed a melting point of 241 to 244 °C.
Then `N#Cc1c(-c2ccc(Oc3ncccn3)cc2)n(C2CCC2)c2cc(OC3CCOCC3)ccc12` [Compound 3167], with 168 to 169 °C; and `Cc1cccn(-c2ccc3c(C#N)c(-c4ccc(NC(=O)NC(C)C)cc4)n(C4CCC4)c3c2)c1=O` [Compound 3342], with 266 to 267.5 °C.
For `N#Cc1c(-c2ccc(OC[C@H]3CCCO3)cc2)n(CC2CC2)c2cc(OC3CCOCC3)ccc12` [Compound 2789], the melting point was in the range of 133 to 134 °C.
For the compound `N#Cc1c(-c2ccc(NS(=O)(=O)C3CC3)cc2)n(C2CCC2)c2cc(OC3COCOC3)ccc12` [Compound 2928], the melting point is 216 to 217 °C.
The same measure for `O=S1(=O)CCCN1c1ccc(-c2cc3ccc(Oc4ncccn4)cc3n2CC2CC2)cc1` [Compound 3326]: 98 to 99 °C; for `Cc1cccn(-c2ccc3c(C#N)c(-c4ccc(NS(=O)(=O)CC(C)C)cc4)n(C4CCC4)c3c2)c1=O` [Compound 3340]: 290 to 291 °C; for `CCCS(=O)(=O)Nc1ccc(-c2c(C#N)c3ccc(N4CCN(CC5CC5)CC4)cc3n2CC)cc1` [Compound 1411]: 173 to 174 °C.
Then `CC[S+]([O-])c1ccc2c(C#N)c(-c3ccc(NC(=O)OC(C)C)cc3)n(C3CCC3)c2c1` (centres unmarked) [Compound 2714], with 165 to 168 °C; and `CCCS(=O)(=O)Nc1ccc(-c2c(C#N)c3ccc(-c4cc(C)ccn4)cc3n2C2CCC2)cc1` [Compound 2978], with 210 to 212 °C.
Then `CC(C)S(=O)(=O)Nc1ccc(-c2c(C#N)c3ccc(N4CCCCC4)cc3n2C2CCC2)cc1` [Compound 2968], with 233 to 235 °C.
`CCCS(=O)(=O)Nc1ccc(-c2c(C#N)c3ccc(OC4CCOCC4)cc3n2C2CCC2)cc1` [Compound 2746] yielded a melting point of 185 to 187 °C.
The same measure for `C[C@@H](OC(=O)Nc1ccc(-c2c(C#N)c3ccc(N4CCOCC4)cc3n2C2CCC2)cc1)C(F)(F)F` [Compound 2864]: 220 to 222 °C.
The compound `CCOc1ccc(-c2c(C#N)c3ccc(N4CCN(C)CC4)cc3n2CC)cc1` [Compound 1338] had a melting point of 186 to 187 °C.
Then `N#Cc1c(-c2ccc(N3CCCS3(=O)=O)cc2)n(C2CC2)c2cc(OC3CCOCC3)ccc12` [Compound 2941], with 219 to 224 °C.
Then `CCC(CC)OC(=O)Nc1ccc(-c2c(C#N)c3ccc(OC4CCOCC4)cc3n2C2CCC2)cc1` [Compound 2617], with 127 to 129 °C; and `CC(OC(=O)Nc1ccc(-c2c(C#N)c3ccc(OCc4cnccn4)cc3n2C2CCC2)cc1)C(F)(F)F` (centres unmarked) [Compound 3021], with 195 to 196 °C.
Compound `CCCNC(=O)Oc1ccc(-c2c(C#N)c3ccc(OC4CCOCC4)cc3n2C2CCC2)cc1` [Compound 2808] returned a melting point of 153 to 154 °C.
For the compound `COCCOc1ccc2c(C#N)c(-c3ccc(C(=O)N[C@@H](C)c4ccccc4)cc3)n(C3CCC3)c2c1` [Compound 3131], the melting point lay in the range of 149 to 152 °C.
For the compound `CCC(C)NC(=O)c1ccc2c(C#N)c(-c3ccc(NC(=O)O[C@H](C)C4CC4)cc3)n(C3CCC3)c2c1` (some centres unmarked) [Compound 2273], the melting point was in the range of 118 to 121 °C.
Then `CCCS(=O)(=O)Nc1ccc(-c2c(C#N)c3ccc(Oc4ncccc4C#N)cc3n2CC2CC2)cc1` [Compound 3250], with 232 to 235 °C; and `N#Cc1c(-c2ccc(Nc3ccc(F)c(C(F)(F)F)c3)cc2)n(C2CCC2)c2cc(OC3CCOCC3)ccc12` [Compound 3156], with 168 to 169 °C.
The compound `CC(OC(=O)Nc1ccc(-c2c(C#N)c3ccc(Oc4ncccn4)cc3n2C2CCC2)cc1)c1ccc(F)cc1` (centres unmarked) [Compound 2708] had a melting point of 200 to 202 °C.
Then `N#Cc1c(-c2ccc(Nc3nc(-c4ccc(F)cc4)cs3)cc2)n(C2CCC2)c2cc(OCCF)ccc12` [Compound 3206], with 234 to 236 °C; and `CCn1c(-c2ccc(N3CCCS3(=O)=O)cc2)c(C#N)c2ccc(N3CCOCC3)cc21` [Compound 2926], with 247 to 248 °C.
In the case of `C[C@@H](OC(=O)Nc1ccc(-c2c(C#N)c3cc(OCCCn4cncn4)ccc3n2C2CCC2)cc1)c1ccccc1` [Compound 2734], the melting point lay in the range of 206 to 208 °C.
As for `COCCOc1ccc2c(C#N)c(-c3ccc(NC(=O)Oc4ccc(Cl)cc4)cc3)n(C3CCC3)c2c1` [Compound 1401], the melting point was 182 to 183 °C.
Then `C[C@@H](OC(=O)Nc1ccc(-c2c(C#N)c3ccc(N4CCCC4)cc3n2C2CCC2)cc1)C(F)(F)F` [Compound 2961], with 246 to 249 °C; and `C[C@H](NS(=O)(=O)Nc1ccc(-c2c(C#N)c3ccc(N4CCOCC4)cc3n2C2CCC2)cc1)C1CC1` [Compound 3314], with 198 to 199 °C; and `CC1CCc2cc(-c3c(C#N)c4ccc(Oc5ncccn5)cc4n3C3CCC3)ccc2NC1=O` (centres unmarked) [Compound 3222], with 233 to 235 °C.
Consider `CCOc1ccc2c(C#N)c(-c3ccc(NC(=O)OCCOCCOC)cc3)n(C3CCC3)c2c1` [compound 1424, [4-(3-cyano-1-cyclobutyl-6-ethoxy-1H-indol-2-yl)-phenyl]-carbamic acid 2-(2-methoxyethoxy)-ethyl ester], for which the melting point lay in the range of 65 to 72 °C.
The compound `CCCS(=O)(=O)Nc1ccc(-c2c(C#N)c3ccc(N4CCOCC4)cc3n2C2CCC2)cc1` [Compound 2803] yielded a melting point of 203 to 204 °C.
In turn, `C[C@@H](OC(=O)Nc1ccc(-c2c(C#N)c3ccc(OCCCS(C)(=O)=O)cc3n2C2CCC2)cc1)C1CC1` [Compound 2694] came in with a melting point of 155 to 160 °C.
Then `CCN(C)C(=O)c1ccc2c(C#N)c(-c3ccc(NC(=O)O[C@H](C)C4CC4)cc3)n(C3CCC3)c2c1` [Compound 2275], with 114 to 117 °C.
For the compound `N#Cc1c(-c2ccc(NS(=O)(=O)C3CC3)cc2)n(C2CCC2)c2cc(C(=O)N3CCOCC3)ccc12` [Compound 2825], the melting point fell in the range of 125 to 128 °C.
Turning to `N#Cc1c(-c2ccc(NS(=O)(=O)C3CC3)cc2)n(C2CC2)c2cc(N3CCOCC3)ccc12` [Compound 2877], the melting point lay within 241 to 243 °C.
For `CC(C)NC(=O)N(C(=O)NC(C)C)c1ccc(-c2c(C#N)c3ccc(-c4ccccn4)cc3n2C2CCC2)cc1` [Compound 3226], the melting point is 193 to 194 °C.
Then `CCOC(=O)Nc1ccc(-c2c(C#N)c3ccc(N4CCN(C)CC4)cc3n2CC)cc1` [compound 1339], with 177 to 178 °C; and `CCN(CC)C(=O)Oc1ccc(-c2c(C#N)c3ccc(OC4CCOCC4)cc3n2C2CCC2)cc1` [Compound 2816], with 137 to 138 °C.
As to `CC(C)NC(=O)Oc1ccc2c(C#N)c(-c3ccc(NC(=O)O[C@H](C)C4CC4)cc3)n(C3CCC3)c2c1` [Compound 3174], the melting point fell in the range of 202 to 205 °C.
The compound `COCCN(C)C(=O)c1ccc2c(C#N)c(-c3ccc(NS(=O)(=O)C4CC4)cc3)n(C3CCC3)c2c1` [Compound 2824] came in with a melting point of 201 to 203 °C.
Compound `Cc1ccnc(Oc2ccc3c(C#N)c(-c4ccc(NC(=O)O[C@H](C)C5CC5)cc4Cl)n(C4CCC4)c3c2)n1` [Compound 3059] registered a melting point of 97 to 109 °C.
Then `COc1ccc(Nc2ccc(-c3c(C#N)c4ccc(OC5CCOCC5)cc4n3C3CCC3)cc2)cc1` [Compound 3128], with 207 to 210 °C; and `C[C@@H](OC(=O)Nc1ccc(-c2c(C#N)c3ccc(OC4CCOCC4)cc3n2C2CCC2)cc1)C1CC1` [Compound 2696], with 126 to 128 °C; and `C[C@@H](OC(=O)Nc1ccc(-c2c(C#N)c3ccc(OC4CCS(=O)(=O)CC4)cc3n2CC2CC2)cc1)C1CC1` [Compound 3233], with 193 to 198 °C.
The same measure for `CC(OC(=O)Nc1ccc(-c2c(C#N)c3ccc(Oc4ncccn4)cc3n2C2CCC2)cc1)C(F)(F)F` (centres unmarked) [Compound 2707]: 211 to 213 °C.
`CC(C)Nc1ccc(-c2c(C#N)c3ccc(OC4CCOC4)cc3n2C2CC2)cc1` (centres unmarked) [Compound 2150] came in with a melting point of 170 to 172 °C.
With `CC(C)C(C)OC(=O)Nc1ccc(-c2c(C#N)c3ccc(OC4CCOC4)cc3n2C2CC2)cc1` (centres unmarked) [Compound 1446], the melting point lay within 207 to 208 °C.
Then `N#Cc1c(-c2ccc(N3CCCCS3(=O)=O)cc2)n(C2CCC2)c2cc(OC3CCOCC3)ccc12` [Compound 3218], with 180 to 187 °C.
Then `COCCOc1ccc2c(C#N)c(-c3ccc(C(=O)N4CCC4)cc3)n(C3CCC3)c2c1` [Compound 2755], with 166 to 168 °C.
